Experimental data as given in patent US20220213128A1 (RockGen Therapeutics LLC, priority 2021, published 2022).

Legend:
[1] = cited from earlier work
[2] = Human Metabolome Database; cited from earlier work
[3] = Plasma stability assay and LC-MS/MS; stability in solution; assay type: in vitro ADME; conditions: compared with the other designed compounds
Experimental: Having described the compounds generally, including the preferred compound candidates for use in the treatment of PD, the method utilized to test and produce the compounds may now be described. […] The stability of these compounds is determined using a plasma stability assay and LC-MS/MS. The assays are utilized to assess each compound's activity and cellular permeability human dopaminergic neuronal precursor cell lines and Caco-2 cells. […] A in silico analysis may be used to predict bioavailability, BBB penetration, and PK/PD profiles in the peripheral and central nervous system.

In the case of N[C@@H](Cc1ccc(O)c(O)c1)C(=O)O [L-Dopa, L-3,4-dihydroxyphenylalanine], the bioavailability ([1]; after peripheral conversion and gut metabolism) is given as 1%, the “fraction of oral dose that may reach the brain” value ([1]; certain formulations, at best) is given as 5-10% and the “lipophilicity, determined experimental value” [2] is given as −2.39.

With N[C@@H](Cc1ccc(OC(=O)CCCC[C@@H]2CCSS2)c(O)c1)B(O)O [RG-2] the “stability in aqueous solutions and plasma” value (shortened to “stability”) [3] was “more stable”.

For C[Si](C)(C)CCc1ccc(C[C@@H](N)Cc2ccc(OC(=O)CCCC[C@@H]3CCSS3)c(O)c2)cc1 [RG-4], the “stability” value [3] was “more stable”.

In the case of N[C@@H](Cc1ccc(OC(=O)CCCC[C@@H]2CCSS2)c(O)c1)C(=O)O [RG-1], the “stability” value [3] is reported as “more stable”.
